Assay [1] concerns the target T1, PKA-R (bovine RIα 92-260; bRIα 92–260) (Bos taurus, UniProt P00514).
T1 construct: gene PRKAR1A; expressed in E. coli BL21 (DE3) RIL
Briefly: biochemical. Also noted: focal molography, PKA-R binding to immobilized cAMP analogue, multi-cycle kinetics, 20 °C, buffer A or 50% human serum. The conditions noted are these: 20 °C, mean of three replicates; for koff: read-out: koff [10^-2 s^-1]; for kon: read-out: kon [10^5 M^-1 s^-1]. The procedure:
In order to determine the kinetic parameters of the PKA-R–cAMP interaction, multi cycle kinetic experiments were conducted in both buffer and 50% human serum at 20^◦C with intermediate regeneration. […] The sensor maintained reliable performance in both conditions, with no evidence of non-specific binding in serum. During these experiments, optimal experimental settings were refined iteratively to achieve the ideal flow rates and best transition times between association and dissociation phase. […] To mitigate this, buffer A was supplemented with bovine serum albumin (BSA) at a concentration of 1 mg/mL, which successfully eliminated sample depletion. […] Nevertheless, subtle differences in the association rate constant (kon) and dissociation rate constant (koff) are evident between the two media. These variations likely stem from the complex biological environment in serum, where interactions with additional serum components may slightly alter the binding dynamics. To ensure that the extracted kinetic parameters accurately represent the specific PKA-R–cAMP interaction, only the initial 15% of the dissociation phase was used to determine koff, thereby minimizing the influence of incomplete dissociation due to the residual sticking of the protein to the surface. Table 2 summarizes the triplicate kinetic measurements for both 6-AH-cAMP and 8-AHA-cAMP in buffer and serum. The equilibrium dissociation constants (KD) remain in the nanomolar range under all conditions. In this study, we use focal molography to investigate the interaction between the cAMP binding domain A of the bovine R subunit Iα of PKA (bRIα 92–260) (PKA-R) and cyclic AMP (cAMP) analogues in both buffer and 50% human serum. The R-subunit inhibits protein kinase activity of the catalytic subunit of PKA by direct binding. By quantifying kinetic and thermodynamic parameters across a physiological temperature range, we examine how the biological environment alters the enthalpic and entropic contributions to binding.

Assay [2] has as its target T1, PKA-R (bovine RIα 92-260; bRIα 92–260). Put plainly: biochemical. The settings on record: 293 K, van't Hoff fit. Set-up: Focal molography, immobilised cAMP analogue, PKA-R as analyte; KD at 293 K from van't Hoff fit. An excerpt: In this study, we use focal molography to investigate the interaction between the cAMP binding domain A of the bovine R subunit Iα of PKA (bRIα 92–260) (PKA-R) and cyclic AMP (cAMP) analogues in both buffer and 50% human serum. The R-subunit inhibits protein kinase activity of the catalytic subunit of PKA by direct binding. By quantifying kinetic and thermodynamic parameters across a physiological temperature range, we examine how the biological environment alters the enthalpic and entropic contributions to binding. […] In order to determine the kinetic parameters of the PKA-R–cAMP interaction, multi cycle kinetic experiments were conducted in both buffer and 50% human serum at 20^◦C with intermediate regeneration. […] The sensor maintained reliable performance in both conditions, with no evidence of non-specific binding in serum. During these experiments, optimal experimental settings were refined iteratively to achieve the ideal flow rates and best transition times between association and dissociation phase. […] To mitigate this, buffer A was supplemented with bovine serum albumin (BSA) at a concentration of 1 mg/mL, which successfully eliminated sample depletion. […] Fig 8 summarizes the resulting thermodynamic parameters calculated at 293 K (see S1 Table for data). For both ligands, binding to PKA-R remains highly favorable in both media, with ΔG values around −10 kcal/mol yielding similar affinities. However, the underlying driving forces appear to differ between buffer and serum. […] In contrast, the interaction in 50% serum becomes more enthalpy driven for both ligands. For 6-AH-cAMP, ΔH drops to −7.4 kcal/mol, while the entropic contribution increases to −2.6 kcal/mol. For 8-AHA-cAMP, the transition is even more striking: binding becomes entirely enthalpy driven in serum, with an unfavorable entropy change (−T ΔS = 1.2 kcal/mol) and a strong enthalpic contribution (ΔH = −11.3 kcal/mol). All thermodynamic parameters were extracted from the linear fits to the van’t Hoff plots via standard error propagation from the covariance matrix returned by the linear regression. Specifically, standard deviations for ΔH, ΔS, and ΔG were calculated using the variances and covariances of the fitted slope and intercept. The reported KD values represent the predicted equilibrium dissociation constants at 293 K based on the linear fits, with associated uncertainties derived from the propagated variance in ln(KD).

Where [3] appears, read: 50% human serum, read-out: KD [nM] Focal Mol. (Serum).
[4] abbreviates: buffer, read-out: KD [nM] Focal Mol. (Buffer).

Molecules are shown by their SMILES. Where two headings read alike, the source gives them in different places.

T1 sequence (P00514 93-261): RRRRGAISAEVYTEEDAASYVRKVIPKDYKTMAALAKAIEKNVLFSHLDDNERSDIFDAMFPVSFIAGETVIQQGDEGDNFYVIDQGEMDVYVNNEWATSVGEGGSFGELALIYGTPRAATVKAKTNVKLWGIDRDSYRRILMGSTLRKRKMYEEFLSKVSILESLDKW

As a reminder, the Kd is the free concentration of one partner at which half of the binding sites on the other are occupied at equilibrium, for simple one-to-one binding. By koff is commonly meant the first-order rate constant of dissociation. One may read the kon as a measure of how fast the partners come together. For the compound `NCCCCCCNc1nc2c(N)ncnc2n1[C@@H]1O[C@@H]2COP(=O)(O)O[C@H]2[C@H]1O` [8-AHA-cAMP, 8-(6-Aminohexylamino)adenosine-3^′,5^′-cyclic monophosphate], the Kd worked out at 33.9 nM in assay [1] (50% human serum), 31 ± 3.4 nM in assay [2] (setting [3]) and 25.5 ± 2.5 nM in assay [2] (setting [4]). Also, the values for the koff in assay [1] (50% human serum) and in assay [1] (buffer A) were 0.0165 s⁻¹ and 0.0129 s⁻¹, respectively. Moreover, the values for the kon in assay [1] (50% human serum) and in assay [1] (buffer A) were 487000 M⁻¹ s⁻¹ and 389000 M⁻¹ s⁻¹, respectively.
In the case of `NCCCCCCNc1ncnc2c1ncn2[C@@H]1O[C@@H]2COP(=O)(O)O[C@H]2[C@H]1O` [6-AH-cAMP, N^6-(6-Aminohexyl)adenosine-3^′,5^′-cyclic monophosphate], the values for the Kd in assay [1] (50% human serum), in assay [2] (setting [3]) and in assay [2] (setting [4]) were 25.4 nM, 36.6 ± 0.4 nM and 29.5 ± 0.9 nM, respectively. Also, the koff in assay [1] (50% human serum) stood at 0.0122 s⁻¹; in assay [1] (buffer A) it was 0.013 s⁻¹. The results for the kon in assay [1] (50% human serum) and in assay [1] (buffer A) were 506000 M⁻¹ s⁻¹ and 448000 M⁻¹ s⁻¹, respectively.

These data come from publication doi:10.1101/2025.10.01.679885v1, “Kinetic and thermodynamic analysis of PKA-R–cAMP interactions in crude media using focal molography” (biorxiv, 2025).
